From paper PMC10147923, “Pain-causing stinging nettle toxins target TMEM233 to modulate NaV1.7 function” (Nature Communications, 2023)
“And” between values parts separate entries of the source, which are not always exact repeats. Equal values may be shown once. Read-outs that look alike come from different tables or passages of the source. Positions of bridges follow the written chain, without caps; N, C: chain ends. Residues, ends and D or L forms follow the SMILES beside them. *: point of attachment. Biotin = O=C1N[C@H]2[C@H](CS[C@H]2CCCCC(=O)*)N1; PEG4 = NCCOCCOCCOCCOCCC(=O)O

Columns and labels:
[1] = molecular target: T1, NaV1.7/TMEM233 (Homo sapiens, UniProt B4DJY2+Q15858); test: Proximity ligation assay NaV1.7 and TMEM233; details: Fig 5e
Description: HEK293 cells stably expressing β1/β2 were transiently transfected in T25 flasks using Lipofectamine 2000 with plasmids encoding GFP (0.35 μg) as a transfection control, as well as N-terminal HA-tagged TMEM233 (0.35 μg) and N-terminal FLAG- tagged NaV1.7 (1.0 μg) alone or in combination. The total amount of plasmid DNA/T25 flask was kept constant at 1.7 μg flask using empty pcDNA3.1 plasmid as required. After 24 h incubation at 37 °C, cells were plated on PDL-coated glass coverslips and cultured for a further 24 h. Cells were washed once using sterile phosphate-buffered saline, fixed with 4% formaldehyde for 5 min, permeabilized with 0.1% Triton-X 100 in PSS, blocked using proximity ligation bocking buffer (Sigma DUO82007) and incubated for 1 h with anti-FLAG (1:1000; Sigma F1804) and anti-HA (1:1000; Sigma H6908) antibodies in Duolink antibody diluent. Permeabilized cells were then washed twice with wash buffer A at room temperature for 5 min. Anti-mouse PLUS (Sigma DUO92001) and anti-rabbit MINUS (Sigma DUO92005) probes were diluted 1:5 in Duolink antibody diluent and incubated with cells for 1 h at 37 °C. Cells were then washed with wash buffer A at room temperature for 5 min twice and incubated with ligase diluted 1:40 in ligation buffer. After incubation at 37 °C for 30 mins, cells were washed twice with wash buffer A. Polymerase was diluted 1:80 in amplification buffer and incubated with cells for 100 mins at 37 °C. Cells were subsequently washed with wash buffer B twice for 10 mins and mounted with Duolink In Situ mounting media with DAPI. Cells were imaged on a Zeiss AxioImage M2 with Apotome2 and Axiocam 506 camera. Proximity ligation assay signal (PLA particles) in GFP-positive cells were quantified using ImageJ in collapsed stacks from 3–6 random images obtained per coverslip (Image>Type>8-bit; Image>Adjust>Threshold; Image>Analyze>Analyze Particles). Particles size was set to 0.0003–∞ and circularity to 0.00–1.00. The average number of particles/GFP-positive cells from three independent experiments was analyzed by One-way ANOVA.

[2] = system: NaV1.7 endogenously expressed in TE-671 cells; test: Persistent NaV current, TE-671 cells (automated patch clamp); format: cell-based
[3] = system: total and TTX-s NaV current in wild-type DRG neurons; test: Persistent total NaV current, manual patch clamp, mouse DRG neurons; format: cell-based
[4] = molecular target: T2, NaV1.7 (Homo sapiens, UniProt Q15858); format: cell-based
[5] = molecular target: T2, NaV1.7; test: ExTxA-488 binding assay, NaV1.7
Description: (§1) HEK293 cells (untransfected controls, or transfected with TMEM233, NaV1.7 or both TMEM233 and NaV1.7), were incubated in suspension with ExTxA conjugated to Alexa Fluor 488 (ExTxA-488) in assay buffer (250 mM NaCl, 25 mM HEPES, pH 7) for 30 min at 4 °C. Unbound ExTxA-488 was removed by washing cells three times with assay buffer. Cells were plated at a density of 100,000 cells per well in a volume of 50 µL in a 384-well OptiPlate (PerkinElmer, Massachusetts, USA). Fluorescence intensity (excitation 490 nm; emission 520 nm) was assessed using an Infinite M1000 Pro (Tecan, Männedorf, Switzerland). Concentration-response curves were fitted using the log (agonist) vs. response—variable slope (four parameters) equation and normalized to the largest fitted top from amongst the four groups as computed by GraphPad Prism Version 9.4.1.

[6] = molecular target: T1, NaV1.7/TMEM233; test: ExTxA-488 binding assay, NaV1.7/TMEM233
Description: as §1

[7] = molecular target: T1, NaV1.7/TMEM233; format: cell-based
[8] = system: HEK293 cells; test: ExTxA-488 binding assay, untransfected/mock HEK293; design: species or system human
Description: as §1

[9] = molecular target: TMEM233 (Homo sapiens, UniProt B4DJY2); test: ExTxA-488 binding assay, TMEM233
Description: as §1

[10] = molecular target: T1, NaV1.7/TMEM233; format: cell-based; details: best-fit value, log(agonist) vs. response -- variable slope (four parameters)
Description: HEK293-NaV1.7 cells were transfected with TMEM233, CRELD1, LMAN2L, MMGT1, RNF121 and STT3B and co-transfected with five plasmids coding for the Glycosylphosphatidylinositol (GPI) complex (GPAA1, PIGK, PIGS, PIGU, PIGT) using Lipofectamine 2000. After 24 h, transfected cells were harvested and plated at a density of 10,000–15,000 cells per well on black-walled 384-well imaging plates. Plated cells were cultured for a further 24 h at 37 °C and 5% CO2. FLIPR (Fluorescent Imaging Plate Reader) Red membrane potential assay dye (Molecular Devices, California, USA) was diluted in physiological salt solution according to the manufacturer’s instructions (PSS, in mM: NaCl 140, glucose 11.5, HEPES 10, KCl 5.9, MgCl2 1.4, NaH2PO4 1.2, NaHCO3 5, CaCl2 1.8, pH 7.4). Growth medium was removed from the plate and replaced with 20 µL of FLIPR Red membrane potential assay dye per well and incubated in the dark at 37 °C for 60 min. […] Fluorescence responses to ExTxA were computed as the maximum change in fluorescence over baseline (ΔF/F0) using ScreenWorks (Molecular Devices, Version 5.1.2.94).

[11] = molecular target: T2, NaV1.7; test: Recovery from fast inactivation, HEK293-NaV1.7 with peptide in intracellular solution; format: cell-based
Description: To determine recovery from fast inactivation, a 20 ms pulse to 0 mV from a holding potential of −90 mV was used to induce fast inactivation. A subsequent recovery period, ranging from 1 ms to 2216 ms in 50% increments at −90 mV, was followed by a last 20 ms test pulses to 0 mV to determine the time-dependence of recovery from fast inactivation. The proportion of available channels was determined by normalizing peak currents from the last to the first pulse. A two-phase exponential equation was fit to the normalized current, plotted as a function of time, to determine the time constants τ1 and τ2 of recovery from fast inactivation.

[12] = system: TE-671 cells; details: veratridine 5 µM, ouabain 20 nM

T2 sequence (Q15858 whole entry): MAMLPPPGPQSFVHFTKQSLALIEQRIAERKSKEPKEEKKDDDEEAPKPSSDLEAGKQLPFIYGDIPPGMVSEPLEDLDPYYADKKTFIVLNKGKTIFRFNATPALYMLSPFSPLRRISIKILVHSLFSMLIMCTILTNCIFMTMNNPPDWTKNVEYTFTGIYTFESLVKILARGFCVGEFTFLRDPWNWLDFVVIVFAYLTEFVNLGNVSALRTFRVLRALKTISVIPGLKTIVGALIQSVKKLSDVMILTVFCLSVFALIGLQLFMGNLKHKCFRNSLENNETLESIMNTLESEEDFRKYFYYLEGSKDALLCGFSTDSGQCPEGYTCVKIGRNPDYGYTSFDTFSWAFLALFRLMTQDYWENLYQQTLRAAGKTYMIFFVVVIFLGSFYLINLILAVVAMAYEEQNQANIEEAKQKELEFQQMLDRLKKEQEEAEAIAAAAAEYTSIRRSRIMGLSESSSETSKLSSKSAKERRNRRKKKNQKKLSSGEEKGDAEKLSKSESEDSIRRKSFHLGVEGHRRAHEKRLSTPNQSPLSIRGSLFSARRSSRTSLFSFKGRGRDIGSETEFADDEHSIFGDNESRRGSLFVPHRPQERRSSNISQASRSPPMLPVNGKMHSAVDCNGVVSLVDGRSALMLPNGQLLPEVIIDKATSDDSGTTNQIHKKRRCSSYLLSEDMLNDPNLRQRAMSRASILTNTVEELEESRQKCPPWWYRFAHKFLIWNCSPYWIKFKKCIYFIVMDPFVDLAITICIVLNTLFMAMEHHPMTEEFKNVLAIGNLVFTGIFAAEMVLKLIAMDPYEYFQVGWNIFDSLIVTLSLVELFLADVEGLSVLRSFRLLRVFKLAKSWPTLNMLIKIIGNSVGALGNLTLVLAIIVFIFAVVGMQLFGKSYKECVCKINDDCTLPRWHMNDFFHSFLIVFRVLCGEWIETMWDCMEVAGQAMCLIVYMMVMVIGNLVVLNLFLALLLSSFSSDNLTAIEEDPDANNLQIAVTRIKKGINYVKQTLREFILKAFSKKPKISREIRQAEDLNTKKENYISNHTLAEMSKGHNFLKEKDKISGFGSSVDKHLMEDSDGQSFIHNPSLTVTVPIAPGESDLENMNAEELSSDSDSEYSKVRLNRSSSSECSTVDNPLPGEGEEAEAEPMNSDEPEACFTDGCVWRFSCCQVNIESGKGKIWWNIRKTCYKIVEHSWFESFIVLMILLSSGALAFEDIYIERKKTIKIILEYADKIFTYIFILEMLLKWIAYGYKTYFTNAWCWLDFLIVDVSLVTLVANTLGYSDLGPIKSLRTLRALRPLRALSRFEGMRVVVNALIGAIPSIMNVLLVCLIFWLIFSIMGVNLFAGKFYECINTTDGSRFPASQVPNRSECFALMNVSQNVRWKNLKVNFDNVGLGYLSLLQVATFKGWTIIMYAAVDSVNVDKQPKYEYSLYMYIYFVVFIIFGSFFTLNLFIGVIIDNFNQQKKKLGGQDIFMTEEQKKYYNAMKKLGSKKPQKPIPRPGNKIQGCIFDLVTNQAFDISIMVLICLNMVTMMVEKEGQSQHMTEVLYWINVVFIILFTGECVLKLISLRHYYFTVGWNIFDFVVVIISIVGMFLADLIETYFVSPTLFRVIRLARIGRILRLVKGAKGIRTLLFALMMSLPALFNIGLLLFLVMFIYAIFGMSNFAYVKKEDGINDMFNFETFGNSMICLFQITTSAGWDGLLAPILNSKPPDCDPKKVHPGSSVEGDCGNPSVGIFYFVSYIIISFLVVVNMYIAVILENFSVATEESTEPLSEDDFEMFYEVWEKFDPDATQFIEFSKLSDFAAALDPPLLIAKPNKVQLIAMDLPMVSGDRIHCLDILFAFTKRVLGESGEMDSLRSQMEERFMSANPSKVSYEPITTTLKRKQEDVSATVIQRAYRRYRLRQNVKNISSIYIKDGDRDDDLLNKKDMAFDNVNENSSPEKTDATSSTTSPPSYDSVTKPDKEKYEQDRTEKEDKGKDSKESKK
T2 sequence (Q07699 19-218, further chain): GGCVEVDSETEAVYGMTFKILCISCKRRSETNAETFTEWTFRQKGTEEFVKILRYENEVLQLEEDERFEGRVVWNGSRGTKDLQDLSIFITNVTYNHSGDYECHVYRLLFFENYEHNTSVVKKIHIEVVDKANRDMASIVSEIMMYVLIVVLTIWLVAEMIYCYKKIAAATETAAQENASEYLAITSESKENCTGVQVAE
TMEM233, sequence (B4DJY2 whole entry): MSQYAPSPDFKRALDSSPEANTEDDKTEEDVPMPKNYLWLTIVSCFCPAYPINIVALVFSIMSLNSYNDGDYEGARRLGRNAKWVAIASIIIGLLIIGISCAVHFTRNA

Which results are given for FLAG-NaV1.7?
particles/cell, mean ([1]; mean of n = 3): 5.245 particles/cell; particles/cell ([1]; replicate 1): 1.95 particles/cell; particles/cell ([1]; replicate 2): 7.467 particles/cell; particles/cell ([1]; replicate 3): 6.319 particles/cell

`NC1=N[C@H](O)[C@H]2[C@H]3O[C@]4(O)O[C@@H]([C@@H](O)[C@@]2(N1)[C@@H]4O)[C@]3(O)CO` [TTX, tetrodotoxin, reference compound] was tested. Which “Mean Diff. of persistent current, ExTxA vs. ExTxA + TTX” value [2] did it give?
The value was 0.2464.

And the “Mean Diff. of persistent current, ExTxA vs. ExTxA + TTX” value [3]?
Its value is 0.5123.

What about the “Mean Diff. of persistent current, ExTxA vs. TTX” value [4] of the same compound?
The value was 0.1483.

For `CC[C@H](C)[C@@H]1NC(=O)[C@H](CCCNC(=N)N)NC(=O)[C@H](Cc2ccccc2)NC(=O)[C@H](CC(C)C)NC(=O)[C@H](CO)NC(=O)[C@@H]2CSSC[C@@H]3NC(=O)[C@H]([C@@H](C)O)NC(=O)[C@H](CSSC[C@H](NC(=O)[C@H](CCCNC(=N)N)NC(=O)[C@@H]4CCCN4C(=O)[C@H](CC(C)C)NC(=O)[C@@H](N)CCCCn4cc(CNC(=O)c5ccc(-c6c7ccc(=N)c(S(=O)(=O)O)c-7oc7c(S(=O)(=O)O)c(N)ccc67)c(C(=O)O)c5)nn4)C(=O)N[C@@H](CC(=O)O)C(=O)N[C@@H](CO)C(=O)N4CCC[C@H]4C(=O)N[C@@H](Cc4ccccc4)C(=O)N2)NC(=O)[C@H](CCCCN)NC(=O)[C@H](CC(=O)O)NC(=O)CNC(=O)[C@H](CSSC[C@@H](C(=O)N[C@H](C(=O)N2CCC[C@H]2C(=O)N[C@@H](CC(=O)O)C(=O)N[C@H](C(=O)O)C(C)C)C(C)C)NC(=O)[C@H](CC(C)C)NC(=O)CNC(=O)[C@H](Cc2ccccc2)NC(=O)[C@H]([C@@H](C)CC)NC(=O)[C@@H]2CCCN2C(=O)[C@H](CC(C)C)NC(=O)[C@@H]2CCCN2C(=O)[C@H](C(C)C)NC3=O)NC(=O)[C@H](CC(C)C)NC(=O)CNC1=O` [Alexa488-ExTxA], which Max fluorescence ([5]; Alexa488-ExTxA 1 µM, NaV1.7, mean ± SEM, n = 3) is on record?
Its Max fluorescence is 20,583 ± 3970 AFU.

What about the HillSlope ([5]; Nav1.7, four-parameter fit, Top = 1) of the same compound?
Its HillSlope is 0.7934.

And the LogEC50 ([5]; Nav1.7, four-parameter fit, Top = 1, 95% CI -5.409 to -4.797)?
The LogEC50 was -5.142.

What about the HillSlope [6] of the same compound?
The HillSlope was 1.366.

What about the LogEC50 [6] of the same compound?
The LogEC50 was -6.833.

And the Max fluorescence ([6]; Alexa488-ExTxA 1 µM, NaV1.7/TMEM233, mean ± SEM, n = 3)?
Its Max fluorescence is 38,799 ± 2471 AFU.

What about the “Best-fit parameter Bottom” value [7] of the same compound?
The value was 0.00002.

What about the “Best-fit parameter Hill slope” value [7] of the same compound?
Its value is 1.084.

What about the “Best-fit parameter Top” value [7] of the same compound?
The value was 0.8013.

What about the “functional activity of tagged ExTxA” value [7] of the same compound?
Its value is “retained functional activity”.

And the Max fluorescence ([8]; Alexa488-ExTxA 1 µM, HEK293, mean ± SEM, n = 3)?
Its Max fluorescence is 15,740 ± 2133 AFU.

And the HillSlope ([8]; Untransfected, four-parameter fit, Top = 1)?
Its HillSlope is 0.9756.

What about the LogEC50 ([8]; Untransfected, four-parameter fit, Top = 1, 95% CI -5.502 to -5.307) of the same compound?
Its LogEC50 is -5.409.

What about the HillSlope [9] of the same compound?
Its HillSlope is 1.703.

What about the LogEC50 [9] of the same compound?
The LogEC50 was -6.917.

What about the Max fluorescence ([9]; Alexa488-ExTxA 1 µM, TMEM233, mean ± SEM, n = 3) of the same compound?
The Max fluorescence was 38,681 ± 951.2 AFU.

What about the Bottom [10] of the same compound?
The Bottom was 2.016e-5.

What about the HillSlope [10] of the same compound?
The HillSlope was 1.084.

And the LogEC50 [10]?
Its LogEC50 is -7.29.

What about the Span [10] of the same compound?
The Span was 0.8012.

What about the Top [10] of the same compound?
The Top was 0.8013.

Which results are given for BSA control?
Tau Fast, individual values [11]: 7.097 and 5.916 and 7.352 and 7.278 and 4.563 and 7.588 and 6.382 and 7.242 and 8.803; Tau Fast, mean [11]: 6.913

With `CC[C@H](C)[C@@H]1NC(=O)[C@H](CCCNC(=N)N)NC(=O)[C@H](Cc2ccccc2)NC(=O)[C@H](CC(C)C)NC(=O)[C@H](CO)NC(=O)[C@@H]2CSSC[C@@H]3NC(=O)[C@H]([C@@H](C)O)NC(=O)[C@H](CSSC[C@H](NC(=O)[C@H](CCCNC(=N)N)NC(=O)[C@@H]4CCCN4C(=O)[C@H](CC(C)C)NC(=O)CCOCCOCCOCCOCCNC(=O)CCCC[C@@H]4SC[C@@H]5NC(=O)N[C@@H]54)C(=O)N[C@@H](CC(=O)O)C(=O)N[C@@H](CO)C(=O)N4CCC[C@H]4C(=O)N[C@@H](Cc4ccccc4)C(=O)N2)NC(=O)[C@H](CCCCN)NC(=O)[C@H](CC(=O)O)NC(=O)CNC(=O)[C@H](CSSC[C@@H](C(=O)N[C@H](C(=O)N2CCC[C@H]2C(=O)N[C@@H](CC(=O)O)C(=O)N[C@H](C(=O)O)C(C)C)C(C)C)NC(=O)[C@H](CC(C)C)NC(=O)CNC(=O)[C@H](Cc2ccccc2)NC(=O)[C@H]([C@@H](C)CC)NC(=O)[C@@H]2CCCN2C(=O)[C@H](CC(C)C)NC(=O)[C@@H]2CCCN2C(=O)[C@H](C(C)C)NC3=O)NC(=O)[C@H](CC(C)C)NC(=O)CNC1=O` [ExTxA-Biotin] ({Biotin-PEG4}-LPRCDSPFCSLFRIGLCGDKCTCVPLPIFGLCVPDV-OH; disulfide 4-21, 9-23, 17-32) as the compound, how does the Bottom [10] read?
Its Bottom is -0.001461.

What about the HillSlope [10] of the same compound?
Its HillSlope is 0.9303.

What about the LogEC50 [10] of the same compound?
Its LogEC50 is -6.256.

And the Span [10]?
Its Span is 0.7803.

And the Top [10]?
The Top was 0.7788.

`COc1ccc(C(=O)O[C@H]2CC[C@@]3(C)[C@@H]4CC[C@H]5[C@]6(O)C[C@H](O)[C@@]7(O)[C@@H](CN8C[C@@H](C)CC[C@H]8[C@@]7(C)O)[C@]6(O)C[C@@]53O[C@]24O)cc1OC` [veratridine, reference compound] was tested. Which “cytotoxicity of the concentration used” value [12] did it give?
The value was “non-cytotoxic”.

For `C[C@@H]1O[C@@H](O[C@H]2C[C@@H](O)[C@]3(CO)[C@H]4[C@H](O)C[C@]5(C)[C@@H](C6=CC(=O)OC6)CC[C@]5(O)[C@@H]4CC[C@]3(O)C2)[C@H](O)[C@H](O)[C@H]1O` [ouabain, reference compound], which “cytotoxicity of the concentration used” value [12] is on record?
Its value is “non-cytotoxic”.

What does the source list for “1-41 TMEM233 (MSQYAPSPDFKRALDSSPEANTEDDKTEEDVPMPKNYLWLT; UniProt B4DJY2 1-41, looked up, fragment)”?
Tau Fast, difference between means (1-41 TMEM233 - BSA control) ± SEM [11]: 3.270 ± 1.361; Tau Fast, individual values [11]: 5.876 and 7.835 and 7.406 and 14.82 and 9.055 and 12.01 and 6.932 and 17.51 and 10.21; Tau Fast, mean [11]: 10.18
